The source of these data is patent US20150004262A1, “ANESTHETIC AND THERAPEUTIC COMPOSITION FOR USE IN AQUACULTURE” (priority 2012, published 2015).

For series [1], the system named is serum MDA (TBARS). The experiment in a line: Serum TBARS assay, sobaity. In kind it is in vivo, Sparidentex hasta. The source says: (§1) C. Thiobarbituric Acid Reactive Substances (TRARS) Assay.
Series [2] has as its system serum MDA (TBARS). The experiment in a line: Serum TBARS assay, sheam. In kind it is in vivo, Acanthopagrus latus.
From the text: as §1

Series [3] can be described thus: Experiment 8: oil residues in fish fillet tissue, sobaity. Details: species or system Sparidentex hasta. Particulars: in vivo. The source says:
(§2) Thyme oil consists mainly of thymol. On the other hand, oregano oil consists mainly of carvacrol (40-70%) and thymol, while cinnamon oil consists mainly of (65 to 75% of the oil) is cinnamaldehyde.

Series [4] in a line: Experiment 8: oil residues in fish fillet tissue, sheam. Particulars: in vivo. Details: species or system Acanthopagrus latus.
From the text: as §2

For `Cc1ccc2ccccc2n1` [Quinaldene, quinaldine], in the series with serum MDA (TBARS) [1], the MDA is 0.0365 ± 0.003 nmol/mL and the “Relative Activity (RA) in comparison to control serum” value was 79.27. Besides, in the series with serum MDA (TBARS) [2], the MDA came out at 0.0410 ± 0.002 nmol/mL and the “Relative Activity (RA) in comparison to control serum” value stood at 89.13.

On to cinnamon oil (Cinnamomum zeylanicum), for which the “residue in fillet tissue” value in series [3] was 0.52 ppm/fish; in series [4], 0.17 ppm/fish.
